Measurements: publication PMC5447021, “TNF Lectin-Like Domain Restores Epithelial Sodium Channel Function in Frameshift Mutants Associated with Pseudohypoaldosteronism Type 1B” (Frontiers in Immunology, 2017)
Entries after “also recorded” stand apart in the source; their conditions may differ.

What was measured:
Format in all cases: cell-based, human
αY447fs = assay: Membrane abundance of αY447fs; conditions: 200 nM, relative to WT control (=1), own control 1.27 ± 0.10, p < 0.001 vs control
Description: (§1) Cell surface biotinylation was performed as previously described ([26]). In brief, A549 cells or transiently transfected HEK-293 cells were grown in 10 cm dishes in 37°C, 5% CO2 incubator in DMEM medium supplemented with 5% FBS. […] Medium was aspirated, and then cells were washed twice with 10 ml ice-cold phosphate-buffered saline (PBS), covered with 2.5 mg EZ-Link Sulfo-NHS-SS-Biotin (Thermo Scientific, Rockford, USA), dissolved in 10 ml ice-cold PBS, and incubated at 4°C with gentle agitation for 30 min. Fifty milliliters of quenching solution were added to cells; then cells were scraped in solution and transferred to fresh 50 ml tube. Cell suspension was centrifuged at 500 × g for 3 min. Supernatant was discarded, and 5 ml of Tris-buffered saline (TBS) was added to the cell pellet. The cell pellet was resuspended and centrifuged at 500 × g for 3 min. Supernatant was discarded and cell pellet was resuspended in lysis buffer containing protease inhibitor cocktail (10 µM pepstatin A, 10 µM phenylmethylsulfonyl fluoride, and 10 µM leupeptin) and transferred to fresh 1.5 ml centrifuge tube. Cell pellet was then homogenized on ice by ultrasonication using 1 s bursts and incubated on ice for at least 30 min. Intact cells and nuclei were pelleted by centrifugation at 10,000 × g for 2 min under cooling conditions. […] Exposed films were scanned and quantified using ImageJ (NIH, MD, USA). […]

[1] = system: αP197fs (co-expressed with βγ-ENaC); assay: Whole-cell patch clamp, αP197fs + WT βγ; conditions: read-out: EC50, solnatide, HEK-293, whole-cell, -100 mV, n = 5, p < 0.001 vs WT
Description: (§2) Point mutations of α-, β-, γ- and δ-hENaC and PHA1B frameshift mutations of α-hENaC were prepared with the QuikChange Lightning Site-Directed Mutagenesis Kit (Agilent Technologies, CA, USA). Mutagenic primers were designed individually with the Primer Design Program provided on the producer’s website or for the frameshift mutations the same base changes as reported in patients (see Table 2) were performed. Primers were ordered from Sigma-Aldrich, Vienna, Austria.
(§3) HEK-293 cells were transfected 1 day after cell seeding using X-tremeGENE HP DNA transfection reagent (Roche Diagnostics, Mannheim, Germany) according to the manufacturer’s protocol. A set of WT or mutant αβγ- or δβγ-hENaC, or α-, β-, γ-, or δ-hENaC alone was used, and the ratio of DNA to transfection reagent was 1:3. The expression was highest 48–72 h after transfection.
Electrophysiological experiments were performed as described in detail by Shabbir et al. ([16]). […] Currents were recorded with the patch clamp method in the whole-cell mode. The chamber contained 1 ml of the bath solution of the following composition (in mM): 145 NaCl, 2.7 KCl, 1.8 CaCl2, 2 MgCl2, 5.5 glucose, and 10 HEPES, adjusted to pH 7.4 with 1 M NaOH solution. Micropipettes were pulled from thin-walled borosilicate glass capillaries (Harvard Apparatus, Holliston, MA, USA) with a DMZ Zeitz Puller to obtain electrode resistances ranging from 2 to 5 MΩ. […]

[2] = system: α-ENaC frameshift PHA1B mutants; assay: Whole-cell patch clamp, all α-ENaC PHA1B frameshift mutants + WT βγ; conditions: for Restoration of current by solnatide (words): all 10 frameshift mutants, 200 nM solnatide (Figure 4B), n = 3–11
Description: as §2, §3
(§4) Electrophysiological experiments were performed as described in detail by Shabbir et al. ([16]). […] Currents were recorded with the patch clamp method in the whole-cell mode. The chamber contained 1 ml of the bath solution of the following composition (in mM): 145 NaCl, 2.7 KCl, 1.8 CaCl2, 2 MgCl2, 5.5 glucose, and 10 HEPES, adjusted to pH 7.4 with 1 M NaOH solution. Micropipettes were pulled from thin-walled borosilicate glass capillaries (Harvard Apparatus, Holliston, MA, USA) with a DMZ Zeitz Puller to obtain electrode resistances ranging from 2 to 5 MΩ. The pipette solution contained (in millimolars): 135 potassium methane sulfonate, 10 KCl, 6 NaCl, 1 Mg2ATP, 2 Na3ATP, 10 HEPES, and 0.5 EGTA, adjusted to pH 7.2 with 1 M KOH solution. Chemicals for pipette and bathing solutions were supplied by Sigma-Aldrich (Vienna, Austria). Electrophysiological measurements were carried out with an Axopatch 200B patch clamp amplifier (Axon Instruments, CA, USA). Capacity transients were canceled, and series resistance was compensated. Whole-cell currents were filtered at 5 kHz and sampled at 10 kHz. Data acquisition and storage were processed directly to a PC equipped with pCLAMP 10.2 software (Axon Instruments, CA, USA). […]

αS452fs = assay: Membrane abundance of αS452fs; conditions: 200 nM, relative to WT control (=1), own control 1.11 ± 0.25, p < 0.001 vs control
Description: as §1

βγ-ENaC = assay: Whole-cell patch clamp, WT βγ-ENaC; conditions: HEK-293, 200 nM solnatide, n = 3
Description: as §3
as §4, with “USA).” for “USA). Capacity transients were canceled, and series resistance was compensated. Whole-cell currents were filtered at 5 kHz and sampled at 10 kHz. Data acquisition and storage were processed directly to a PC equipped with pCLAMP 10.2 software (Axon Instruments, CA, USA).”

Q: Which results are given for `C[C@@H]1NC(=O)CNC(=O)[C@H](CCC(=O)O)NC(=O)[C@@H]2CCCN2C(=O)[C@H]([C@@H](C)O)NC(=O)[C@H](CCC(=O)O)NC(=O)[C@H](CCCNC(=N)N)NC(=O)[C@H](CCC(N)=O)NC(=O)CNC(=O)[C@@H](N)CSSC[C@@H](C(=O)O)NC(=O)[C@H](Cc2ccc(O)cc2)NC(=O)[C@H](Cc2c[nH]c3ccccc23)NC(=O)[C@@H]2CCCN2C(=O)[C@H](CCCCN)NC(=O)[C@H](C)NC(=O)[C@H](CCC(=O)O)NC1=O` [solnatide, L-cysteine, L-cysteinylglycyl-L-glutaminyl-L-arginyl-L-α-glutamyl-L-threonyl-L-prolyl-L-α-glutamylglycyl-L-alanyl-L-α-glutamyl-L-alanyl-L-lysyl-L-prolyl-L-tryptophyl-L-tyrosyl-, cyclic (1→17)-disulfide]?
A: Membrane abundance, solnatide 5 min (αY447fs; 5 min): 1.57 ± 0.13; Membrane abundance, solnatide 10 min (αY447fs; 10 min): 1.89 ± 0.16; EC50 [1]: 84 ± 4.9 nM; Restoration of current by solnatide (words) [2]: up to or even higher than WT control current in absence of solnatide; also recorded: restored the amiloride-sensitive current in all these frameshift mutants to WT or higher levels; Restoration of current by solnatide (words) ([2]; listed as Solnatide): restored function in α-ENaC frameshift mutants to current density levels of wild type ENaC or higher; Concentration at which maximum current activation was reached ([2]; solnatide, frameshift mutants, HEK-293): 200 nM; Membrane abundance, solnatide 5 min (αS452fs; 5 min): 1.36 ± 0.11; Membrane abundance, solnatide 10 min (αS452fs; 10 min): 1.94 ± 0.08; Effect of solnatide on current (words) (βγ-ENaC): small current increase in WT βγ-ENaC; also recorded: can activate βγ-ENaC marginally
